The NIST ThermoML archive (doi:10.1021/je200350a)

Test: xn = mol fraction of the nth substance listed
Conditions: 101 kPa, Liquid; for viscosity: Capillary tube (Ostwald / Ubbelohde) method

CCCCBr [1-bromobutane] + O=[N+]([O-])c1ccccc1
Conditions	mass density, 293.15 K [kg/m3]	mass density, 298.15 K [kg/m3]	mass density, 303.15 K [kg/m3]	mass density, 308.15 K [kg/m3]	viscosity, 293.15 K [mPa·s]	viscosity, 298.15 K [mPa·s]	viscosity, 303.15 K [mPa·s]	viscosity, 308.15 K [mPa·s]
x2 = 0.123	1270.9	1263.5	1256.5	1249	0.7256	0.6851	0.6486	0.615
x2 = 0.2445	1262.8	1256.6	1249.8	1242.4	0.8243	0.7761	0.7321	0.692
x2 = 0.3645	1253.7	1247.1	1240.8	1234.3	0.9397	0.8811	0.828	0.7802
x2 = 0.424	1249.7	1244	1238	1230.7	0.9936	0.9308	0.8743	0.8225
x2 = 0.542	1240.8	1234.4	1228.2	1222.2	1.131	1.055	0.986	0.925
x2 = 0.6585	1229.4	1223.8	1218.5	1212.4	1.281	1.19	1.109	1.037
x2 = 0.7737	1220.6	1214.7	1209.9	1205.1	1.477	1.364	1.266	1.18
x2 = 0.8875	1211.5	1206.6	1201.6	1196	1.703	1.566	1.447	1.34
x2 = 0.9439	1206.7	1201.6	1196.5	1191.2	1.835	1.682	1.548	1.43
